Source: US20220288154A1, “GNRH ANTAGONISTS FOR THE TREATMENT OF ESTROGEN-DEPENDENT DISORDERS” (ObsEva S.A., priority 2019, published 2022)
Marks after values point to notes of the source that are not given here.

Experiments:
[1] = PRIMROSE 1 and PRIMROSE 2: lumbar spine bone mineral density; assay type: in vivo, human; settings: 100 mg/day or 200 mg/day + ABT; 24 and 52 weeks
Procedure: To evaluate the safety of compound (VI), patients' bone mineral density levels were measured at baseline and at various timepoints during the studies.

[2] = tested on: human female patients diagnosed as having uterine fibroids; assay: PRIMROSE 1 Phase 3 placebo-controlled trial in uterine fibroids; assay type: in vivo
Procedure: (§1) The PRIMROSE 1 study, conducted in the United States, enrolled 526 women. The PRIMROSE 2 study, conducted in the United States and Europe, enrolled 535 women. Patients were randomized to one of several cohorts: […] […] Pain levels were measured using a Verbal Rating Score (VRS), as described herein. Patients were also assessed to determine the proportion that reported an improvement in quality of life using the Uterine Fibroids Symptoms and Health-Related Quality of Life questionnaire.

[3] = tested on: human female patients diagnosed as having uterine fibroids; assay: PRIMROSE 2 Phase 3 placebo-controlled trial in uterine fibroids; assay type: in vivo; settings: for patients achieving menstrual blood loss ≤80 mL and ≥50% reduction from baseline: 52 weeks
Procedure: as §1

[4] = molecular target: T1, human GnRH receptor (Homo sapiens, UniProt P30968); assay: Affinity for human GnRH receptor; assay type: binding
T1 sequence (P30968 1-328): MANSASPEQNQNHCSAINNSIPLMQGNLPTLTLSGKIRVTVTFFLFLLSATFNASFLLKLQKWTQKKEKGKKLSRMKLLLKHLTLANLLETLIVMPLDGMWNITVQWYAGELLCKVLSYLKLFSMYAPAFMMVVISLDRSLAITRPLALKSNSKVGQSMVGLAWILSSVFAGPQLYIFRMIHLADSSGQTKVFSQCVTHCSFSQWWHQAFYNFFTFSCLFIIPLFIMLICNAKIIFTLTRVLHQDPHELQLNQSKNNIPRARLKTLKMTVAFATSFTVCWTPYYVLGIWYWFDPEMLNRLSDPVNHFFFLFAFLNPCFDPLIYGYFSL

[5] = tested on: human female patients diagnosed as having endometriosis; assay: Phase 2b placebo-controlled trial in endometriosis: endometriosis-associated pain (daily electronic diary); assay type: in vivo; settings: for Dyspareunia Mean (SD) Change from baseline (CFB): 0-3 VRS score; for Dyschezia Mean (SD) CFB: 0-10 NRS score; for Overall Pelvic Pain Responder Rate (VRS score reduction of >30% from baseline): after 52 weeks
Procedure: This example describes the results of a Phase 2b, double-blind, randomized, placebo-controlled, multicenter, human clinical trial undertaken to evaluate the efficacy of a GnRH antagonist represented by formula (VI) in a series of patients suffering from an estrogen-dependent disease. In this trial, a series of human female patients diagnosed as having endometriosis were administered the choline salt of 3-[2-fluoro-5-(2,3-difluoro-6-methoxybenzyloxy)4-methoxyphenyl]-2,4-dioxo-1,2,3,4-tetrahydrothieno[3,4d]pyrimidine-5-carboxylic acid periodically over the course of a 52-week treatment period. After 52 weeks of treatment, the patients were monitored for severity of disease symptoms and bone mineral density.
Participants were women aged 18 to 45 years with surgically confirmed endometriosis and moderate to severe EAP. Women with a history of osteoporosis or other metabolic bone disease were excluded. Certain subjects completing an initial 24-week treatment period were invited to continue in a treatment extension phase, resulting in a total of up to 52 weeks of treatment. Subjects that completed 52 weeks of treatment constituted the treatment extension analysis set (TEAS) of patients.
Patients were randomized to either (i) 50 mg/day, 75, mg/day, 100 mg/day, or 200 mg/day of 3-[2-fluoro-5-(2,3-difluoro-6-methoxybenzyloxy)4-methoxyphenyl]-2,4-dioxo-1,2,3,4-tetrahydrothieno[3,4d]pyrimidine-5-carboxylic acid, administered as a choline salt, or (ii) matching placebo. Patients assigned to the placebo cohort were switched to 100 mg/day of 3-[2-fluoro-5-(2,3-difluoro-6-methoxybenzyloxy)4-methoxyphenyl]-2,4-dioxo-1,2,3,4-tetrahydrothieno[3,4d]pyrimidine-5-carboxylic acid at week 12.
Patients that received 75 mg/day of compound (VI) were divided into two groups: those that received a fixed dose (FD) of compound (VI) at 75 mg/day throughout the 52-week treatment period, and those that received a titrated dose (TD) of 75 mg/day of compound (VI) for the first 12 weeks of the treatment period, followed by a daily dose of either 50 mg, 75 mg, or 100 mg of the compound depending on each patient's serum E2 concentration after 4 weeks or 8 weeks of treatment. Dosages from week 12 onward for patients in the 75 mg/day TD cohort were determined according to the following schedule:
Patients that were treated with 200 mg/day of the compound at the 24-week timepoint in the treatment period were switched to 100 mg/day for the final […] of the study.
EAP was assessed using questionnaires in a daily electronic diary. Mean 28-day scores for pelvic pain were calculated at each month up to 12 months and compared to baseline. Efficacy was assessed as the proportion of patients who had at least 30% reduction in OPP at 12 weeks. DYS, NMPP, dyspareunia, and dyschezia were also assessed. […]

[6] = in vivo
Procedure: BMD of the femoral neck, total hip and lumbar spine was assessed by DXA at baseline and after 12 and 24 weeks of treatment. Reading of DXA scans and monitoring of scan quality, including cross-calibration between sites, was centralized.
All bone mineral density measurements shown below were obtained by assessing bone mineral density at each patient's spine.

[7] = 200 mg/day to week 24, then 100 mg/day, 52 weeks

## COc1cc(F)c(-n2c(=O)[nH]c3csc(C(=O)O)c3c2=O)cc1OCc1c(OC)ccc(F)c1F [Compound (VI), 3-[2-fluoro-5-(2,3-difluoro-6-methoxybenzyloxy)4-methoxyphenyl]-2,4-dioxo-1,2,3,4-tetrahydrothieno[3,4d]pyrimidine-5-carboxylic acid]
[1]
  effect on lumbar spine bone mineral density: does not induce a substantial decrease in bone mineral density
[2]; 100 mg/day
  p value: Improvement in quality of life, Change from baseline in QoL symptom severity score (LS mean): p = 0.002
[2]; 100 mg/day without ABT, 24 weeks
  patients achieving menstrual blood loss ≤80 mL and ≥50% reduction from baseline: 56.4%
[2]; 200 mg/day + ABT (1.0 mg E2 + 0.5 mg NETA), 24 weeks
  patients achieving menstrual blood loss ≤80 mL and 50% reduction from baseline: 75.5%
[2]; 200 mg/day + once-daily ABT
  p value: Improvement in quality of life, Change from baseline in QoL symptom severity score (LS mean): p < 0.001
[3]; 100 mg/day
  p value: Improvement in quality of life, Change from baseline in QoL symptom severity score (LS mean): p = 0.004
[3]; 100 mg/day without ABT
  patients achieving menstrual blood loss ≤80 mL and ≥50% reduction from baseline: 53.2%
[3]; 200 mg/day + ABT
  patients achieving menstrual blood loss ≤80 mL and ≥50% reduction from baseline: 91.6%
[3]; 200 mg/day + once-daily ABT
  p value: Improvement in quality of life, Change from baseline in QoL symptom severity score (LS mean): p < 0.001
[4]
  affinity for human GnRH receptor: 27.4 nM

## COc1cc(F)c(-n2c(=O)[nH]c3csc(C(=O)O)c3c2=O)cc1OCc1c(OC)ccc(F)c1F [GnRH antagonist, 3-[2-fluoro-5-(2,3-difluoro-6-methoxybenzyloxy)4-methoxyphenyl]-2,4-dioxo-1,2,3,4-tetrahydrothieno[3,4d]pyrimidine-5-carboxylic acid]
[5]; 50 mg/day, 12 weeks
  Dyspareunia Mean (SD) Change from baseline (CFB): −0.6 (0.7)
  Dyschezia Mean (SD) CFB: −1.4 (1.7)
  % responders DYS (dysmenorrhea): 43.3%
  % responders NMPP (non-menstrual pelvic pain): 46.2%
  % responders OPP (overall pelvic pain): 49.4%
[5]; 50 mg/day, 24 weeks
  Dyspareunia Mean (SD) Change from baseline (CFB): −0.7 (0.8)
  Dyschezia Mean (SD) CFB: −1.5 (2.1)
  % responders DYS (dysmenorrhea): 47.5%
  % responders NMPP (non-menstrual pelvic pain): 50%
  % responders OPP (overall pelvic pain): 52.5%
[5]; 50 mg/day, 52 weeks
  Dyspareunia Mean (SD) Change from baseline (CFB): −0.5 (1.1)
  Dyschezia Mean (SD) CFB: −2.3 (1.8)
  % responders DYS (dysmenorrhea): 50%
  % responders NMPP (non-menstrual pelvic pain): 66.7%
  % responders OPP (overall pelvic pain): 66.7%
[5]; 75 mg/day, 12 weeks
  Dyspareunia Mean (SD) Change from baseline (CFB): −0.7 (0.8)
  Dyschezia Mean (SD) CFB: −2.1 (2.5)*
  % responders DYS (dysmenorrhea): 68.2* %
  % responders NMPP (non-menstrual pelvic pain): 58.5* %
  % responders OPP (overall pelvic pain): 61.5* %
[5]; 75 mg/day, 24 weeks
  Dyspareunia Mean (SD) Change from baseline (CFB): −0.7 (0.8)
  Dyschezia Mean (SD) CFB: −2.2 (2.5)
  % responders DYS (dysmenorrhea): 58.3%
  % responders NMPP (non-menstrual pelvic pain): 72.9%
  % responders OPP (overall pelvic pain): 70.8%
[5]; 75 mg/day, 52 weeks
  Dyspareunia Mean (SD) Change from baseline (CFB): −0.9 (0.8)
  Dyschezia Mean (SD) CFB: −2.1 (2.9)
  % responders DYS (dysmenorrhea): 69.2%
  % responders NMPP (non-menstrual pelvic pain): 69.2%
  % responders OPP (overall pelvic pain): 69.2%
[5]; 100 mg/day, 12 weeks
  Dyspareunia Mean (SD) Change from baseline (CFB): −0.7 (0.9)
  Dyschezia Mean (SD) CFB: −2.0 (1.8)*
  % responders DYS (dysmenorrhea): 68.6* %
  % responders NMPP (non-menstrual pelvic pain): 61.5* %
  % responders OPP (overall pelvic pain): 56.4* %
[5]; 100 mg/day, 24 weeks
  Dyspareunia Mean (SD) Change from baseline (CFB): −0.6 (0.8)
  Dyschezia Mean (SD) CFB: −2.0 (2.3)
  % responders DYS (dysmenorrhea): 82.1%
  % responders NMPP (non-menstrual pelvic pain): 64.1%
  % responders OPP (overall pelvic pain): 66.7%
[5]; 100 mg/day, 52 weeks
  Dyspareunia Mean (SD) Change from baseline (CFB): −0.7 (1.1)
  Dyschezia Mean (SD) CFB: −2.9 (3.1)
  % responders DYS (dysmenorrhea): 69.2%
  % responders NMPP (non-menstrual pelvic pain): 53.8%
  % responders OPP (overall pelvic pain): 53.8%
[5]; [7]
  Dyspareunia Mean (SD) Change from baseline (CFB): −0.9 (0.9)
  Dyschezia Mean (SD) CFB: −2.6 (2.7)
  % responders DYS (dysmenorrhea): 64.7%
  % responders NMPP (non-menstrual pelvic pain): 76.5%
  % responders OPP (overall pelvic pain): 82.4%
[5]; 200 mg/day, 12 weeks
  Dyspareunia Mean (SD) Change from baseline (CFB): −0.8 (1.1)*
  Dyschezia Mean (SD) CFB: −1.7 (2.3)*
  % responders DYS (dysmenorrhea): 78.9* %
  % responders NMPP (non-menstrual pelvic pain): 47.7%
  % responders OPP (overall pelvic pain): 56.3* %
[5]; 200 mg/day, 24 weeks
  Dyspareunia Mean (SD) Change from baseline (CFB): −1.0 (1.0)
  Dyschezia Mean (SD) CFB: −2.5 (2.6)
  % responders DYS (dysmenorrhea): 84.1%
  % responders NMPP (non-menstrual pelvic pain): 72.7%
  % responders OPP (overall pelvic pain): 77.3%
[5]; 75 mg once daily
  Overall Pelvic Pain Responder Rate (VRS score reduction of >30% from baseline): 69.2%
[5]; 200 mg once daily
  Overall Pelvic Pain Responder Rate (VRS score reduction of >30% from baseline): 82.4%
[6]
  average bone mineral density losses: less than 5%
